Test results: article PMC7392643, “Antibiotic fidaxomicin is an RdRp inhibitor as a potential new therapeutic agent against Zika virus” (BMC Medicine, 2020)
pKd: −log10 of the molar value.

Columns and labels:
[1] = tested on: suppression of IFN signaling induced by ZIKV NS5; assay: pISRE-Luc luciferase reporter assay in 293T cells; assay type: cell-based, human; conditions: RIG-I(N) driven, 30 h treatment
Procedure: 293T cells were cultured in 24-well plates (~ 1 × 10^5 cells per well) and co-transfected with pISRE-Luc (100 ng) and the plasmid coding for RIG-I (100 ng) together with the ZIKV NS5 plasmid at indicated concentrations. Control pcDNA3.1 vector was added to ensure that the same total amount of DNA was used for each transfection. To normalize for transfection efficiency, 5 ng of the constitutive Renilla luciferase reporter pRL-TK (Promega, San Luis Obispo, CA, USA) was added to each transfection. Six hours after transfection, cells were treated by fidaxomicin at indicated concentration for 30 h, followed by analysis of cell lysates for luciferase activity using the Dual-Luciferase Reporter Assay System Kit (Promega) according to the manufacturer’s protocol.

ZIKV (ZG-01 strain) = assay: Antiviral efficacy in ZIKV-infected Ifnar1-/- mice, i.v. dosing; assay type: in vivo; conditions: for Median survival: vehicle 8.5 days
Procedure: RNA from cell supernatants or from mouse tissues (brain and testis) was prepared with RaPure Viral RNA/DNA Kit (Magen, Guangzhou, China) according to the manufacturer’s instructions. The first-strand cDNA was synthesized using random hexamer primers with the Revert Aid Reverse Transcription Kit (Thermo Fisher Scientific, Rockford, IL, USA), and real-time PCR was carried out by using LightCycler® 480 Probes Master (2× reaction mix buffer including DNA polymerase) (no. 04887301001, Roche, Basel, Switzerland). Virus concentration was determined by interpolation onto an internal standard curve made up of a 7-point dilution series of in vitro transcribed RNA and tissue weight to quantify ZIKV RNA as copies/gram tissue. Primer sets used for real-time PCR are shown in Additional file 1: Table S1. Reverse transcription and real-time PCR were performed for at least three times.
For ZIKV infection and antiviral treatment studies, mice were randomly assigned to groups (n = 12–13/group). Male and female 5-week-old Ifnar1^−/− mice were infected subcutaneously (s.c.) with ZIKV (ZG-01 strain, 2 × 10^4 PFU for each mouse) 1 h before administration of treatment agents. Compounds were prepared in sterile pharmaceutical dosage form of 1:10:89 (DMSO : Tween80 : 5% glucose solution) less than 4 h prior to administration in mice. Fidaxomicin was administered by tail vein injection daily at 20 or 10 mg/kg for 7 days. The identity of the treatment groups was blinded to the researcher administering treatments. Survival, disease signs, and the weight of each mouse were recorded on day 0 and then every other day from 1 to 15 days post-infection (dpi). Mice were humanely euthanized if they could no longer right themselves or were unresponsive to stimuli. Tissues, including the brains and testes, were collected from each animal. Part of each tissue was fixed in 4% paraformaldehyde or in PBS for at least 24 h prior to paraffin embedding and sectioning for use in immunohistochemistry analysis, immunofluorescence analysis, or analysis of viral RNA. Total RNA was extracted from tissues, and ZIKV RNA was quantified as described above.
Immunofluorescence assay was carried out on paraffin-embedded mouse brain and testis tissue slides, incubated with an anti-ZIKV E antibody (1:500, BioFront Technologies, Tallahassee, FL, USA). The secondary antibody was Rhodamine Red™-X (RRX) AffiniPure F (ab')2 Fragment Goat Anti-Mouse IgG (1:500, AB_2338781, Jackson ImmunoResearch Laboratories, Inc. West Grove, PA, USA), and 4-,6-diamidino-2-phenylindole (DAPI, 1:1000, Sangon Biotech, Shanghai, China) was used to stain the nuclei. The immunofluorescent images were taken with an inverted microscope (Carl Zeiss, Oberkochen, Germany). For histologic staining, the fixed tissues were dehydrated, embedded in paraffin, sectioned, rehydrated, and stained with hematoxylin and eosin (H/E). The H/E-stained sections were evaluated for viral-induced neuropathology. […] histological examination was performed by a board-certified veterinary pathologist. Each slide was auto scanned by Axio Scan Z1 (Carl Zeiss, Oberkochen, Germany).

[2] = target: T1, ZIKV NS5 full-length protein (Zika virus, UniProt A0A024B7W1); assay: SPR (BIAcore) binding to ZIKV NS5 full-length protein
T1 construct: NS5 (amino acids 1 to 903); His tag (8x histidine) (N); made in house; host or cells: Escherichia coli (Rosetta)
Procedure: The cDNA fragment of ZIKV (ZG-01 strain) NS5 (amino acids 1 to 903), RdRp (amino acids 272 to 903), or DENV2 NS5 (amino acids 1 to 900) containing an N-terminal His tag sequence was cloned into a pET-30a-mutant vector. For protein expression, the plasmids were transformed into Rosetta™ competent cells (TIANGEN BIOTECH Co., Ltd., Beijing, China), respectively. […] Mass spectrometry was performed by Shanghai Applied Protein Technology Co. Ltd. (Shanghai, China). The concentration of a targeted protein was measured by SDS-PAGE using BSA (Sigma, St. Louis, MO) as a standard.
Surface plasmon resonance (SPR) experiments were performed in a BIAcore T100 device (BIAcore Inc., Uppsala, Sweden) using CM5 sensor chips (General Electric Company, GE) according to the protocol provided by the manufacturer. Briefly, recombinant ZIKV NS5 protein, RdRp protein, or DENV2 NS5 protein was immobilized on a CM5 chip, respectively. Different concentrations of fidaxomicin or ribavirin were injected at a flow rate of 30 μL/min for 3 min. Subsequently, data were collected for a 3-min association followed by a 20-min dissociation. The chip was regenerated by injecting 10 μL of 15 mM NaOH for 20 s. […] The binding kinetics was analyzed with the software BIAevaluation version 3.1 using a 1:1 Langmuir binding model. The Kd was calculated as previously described.

T1 sequence (A0A024B7W1 2521-3423): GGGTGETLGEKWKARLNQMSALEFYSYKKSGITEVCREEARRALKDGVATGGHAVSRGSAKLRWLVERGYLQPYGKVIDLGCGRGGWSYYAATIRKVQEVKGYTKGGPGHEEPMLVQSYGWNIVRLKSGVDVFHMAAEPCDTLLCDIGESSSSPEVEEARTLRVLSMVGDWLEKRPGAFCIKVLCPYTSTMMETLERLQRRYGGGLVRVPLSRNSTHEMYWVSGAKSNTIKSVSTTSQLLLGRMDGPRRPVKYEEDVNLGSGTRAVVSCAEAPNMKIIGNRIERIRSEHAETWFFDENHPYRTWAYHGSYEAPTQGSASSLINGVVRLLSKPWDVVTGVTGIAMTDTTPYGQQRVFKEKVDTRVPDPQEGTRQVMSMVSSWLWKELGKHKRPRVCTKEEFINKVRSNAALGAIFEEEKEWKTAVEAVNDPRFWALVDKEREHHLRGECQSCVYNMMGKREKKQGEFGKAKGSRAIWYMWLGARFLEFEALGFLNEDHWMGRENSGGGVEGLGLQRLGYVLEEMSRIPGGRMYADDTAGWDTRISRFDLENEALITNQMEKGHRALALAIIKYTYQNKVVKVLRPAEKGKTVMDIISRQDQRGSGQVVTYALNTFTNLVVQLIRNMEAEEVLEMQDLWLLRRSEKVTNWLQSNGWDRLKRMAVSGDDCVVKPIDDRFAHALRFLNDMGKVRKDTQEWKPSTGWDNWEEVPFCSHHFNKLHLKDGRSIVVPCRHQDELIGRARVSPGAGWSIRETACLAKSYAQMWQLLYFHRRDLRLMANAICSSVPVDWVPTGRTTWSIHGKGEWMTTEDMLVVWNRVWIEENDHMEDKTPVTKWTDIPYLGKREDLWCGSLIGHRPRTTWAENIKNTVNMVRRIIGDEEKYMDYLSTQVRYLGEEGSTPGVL

CCc1c(Cl)c(O)c(Cl)c(O)c1C(=O)O[C@H]1[C@H](O)[C@H](OC)[C@H](OC/C2=C\C=C\C[C@H](O)/C(C)=C/[C@H](CC)[C@@H](O[C@@H]3OC(C)(C)[C@@H](OC(=O)C(C)C)[C@H](O)[C@@H]3O)/C(C)=C/C(C)=C/C[C@@H]([C@@H](C)O)OC2=O)O[C@@H]1C [Fidaxomicin]
effect on NS5 suppression of ISRE reporter luciferase activity [1]: did not liberate the suppression of IFN signaling
Median survival (ZIKV (ZG-01 strain); 10 mg/kg i.v. daily for 7 days): 14 days
Median survival (ZIKV (ZG-01 strain); 20 mg/kg i.v. daily for 7 days): over 15 days
body weight loss (ZIKV (ZG-01 strain); 20 mg/kg/day, between 8 and 15 dpi, vs vehicle): obvious protection from weight loss
ZIKV load in the brains and testes (immunostaining of ZIKV E) (ZIKV (ZG-01 strain); 10 and 20 mg/kg vs vehicle): reduced
viral RNA levels in the brain and testis (ZIKV (ZG-01 strain); 15 dpi, 10 and 20 mg/kg groups, RT-qPCR): significantly decreased
neuronal necrosis in hippocampal pyramidal cells (ZIKV (ZG-01 strain); H/E staining): remarkably reduced
pathologic damages in the cerebra (ZIKV (ZG-01 strain); both treatment groups vs vehicle, H/E staining): remarkably alleviated
number of neurological signs (paralysis, hunching) (ZIKV (ZG-01 strain); both treatment groups, dose-dependent): progressive decrease
perivascular cuffing of vessels in cerebra (ZIKV (ZG-01 strain); both treatment groups, p = 0.0090 and p < 0.0001): significant decrease
mice protected from mortality (ZIKV (ZG-01 strain); high-dose group (20 mg/kg i.v. daily for 7 days)): nine out of 13
effective therapeutic doses against ZIKV (ZIKV (ZG-01 strain); mice, i.v.): 10 to 20 mg/kg
ZIKV E protein in brain and testis tissues (western blotting) (ZIKV (ZG-01 strain); vs vehicle control): significant suppressive effect
pKd [2]: 4.74
